The results in this text go back to patent US20240092745A1, “DRUGS AND COMPOSITIONS FOR THE TREATMENT OF OCULAR DISORDERS” (Graybug Vision, Inc., priority 2017, published 2024).

What is called solubility is the concentration that dissolves in the medium under given conditions. The aqueous solubility is the concentration that dissolves in the medium under given conditions. Read a high aqueous solubility as much dissolved substance.

Each structure is given as a SMILES string. Values after ≈ are worked out from the molar mass of the structure shown. Counter-ions that a name gives are not always drawn. Like-named read-outs stand apart in the source and are kept apart here.

The nature of the data set: Determination of drug solubility in aqueous and organic solvent.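 As to all read-outs here: solid drug suspended at 50 mg/mL nominal in each solvent, vortexed and sonicated, then dissolved concentration in filtered supernatant quantified by HPLC against a calibration curve.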 Format: physicochemical. Particulars: for solubility: thermodynamic from solid.
The mark [1] stands for this setting: organic solvent or mixture, Table 3A, DMSO, read-out: Solubility DMSO.
Where [2] appears, read: Table 3A, water, drug added to 50 mg/mL, read-out: Solubility Water.
The mark [3] stands for this setting: organic solvent or mixture, Table 3A, DCM, read-out: Solubility DCM.
Setting [4] is: organic solvent or mixture, Table 3B, DMSO, read-out: Solubility DMSO.
The mark [5] stands for this setting: Table 3B, water, drug added to 50 mg/mL, read-out: Solubility Water.

Procedure: For each test, approximately 5-10 mg was transferred to a 10 mL glass vial. Aqueous or organic solvent was added to each vial to achieve an overall concentration of 50 mg/mL. After vortexing aggressively for 2-3 minutes and sonicating in a bath sonicator for 5 minutes, undissolved drug was spun down at 1200 rpm for 5 minutes to generate a pellet. The supernatant was collected and filtered through a 0.2 μm nylon syringe filter into HPLC vials for drug content analysis. Drug concentration was determined by comparing against a standard calibration curve.

On to `CCN(CC)CCNC(=O)c1c(C)[nH]c(/C=C2\C(=O)Nc3ccc(N)cc32)c1C` [5-Amino Sunitinib, 5-[5-Amino-2-oxo-1,2-dihydro-indol-(3Z)-ylidenemethyl]-2,4-dimethyl-1H-pyrrole-3-carboxylic acid (2-diethylamino-ethyl)-amide, reference compound], for which the solubility by setting is: under setting [1], greater than 50 mg/mL; under setting [2], less than 1 mg/mL.
Consider `CCN[C@H]1CN(CCCOC)S(=O)(=O)c2sc(S(N)(=O)=O)cc21` [Brinzolamide, reference compound], for which the “Solubility DCM” value (Table 3B, DCM) is recorded as less than 7.5 mg/mL. The “Solubility DMSO” value (Table 3B, DMSO) is listed as greater than 50 mg/mL. Further, the “Solubility Water” value (Table 3B, water, drug added to 50 mg/mL) is less than 1.0 mg/mL. Besides, the solubility under setting [3] was less than 7.5 mg/mL, the solubility under setting [1] is greater than 50 mg/mL and the solubility under setting [2] was less than 1 mg/mL.
As to `CCCCCCCCCCCCCCCCCC(=O)O[C@@H](C)C(=O)O[C@@H](C)C(=O)O[C@@H](C)C(=O)O[C@@H](C)C(=O)NS(=O)(=O)c1cc2c(s1)S(=O)(=O)C(C)CC2NCC` (stereo partly drawn) [Compound 12-3, Octadecanoic acid (S)-1-((S)-1-{(S)-1-[(S)-2-(4-ethylamino-6-methyl-7,7-dioxo-4,5,6,7-tetrahydro-7λ*6*-thieno[2,3-b]thiopyran-2-sulfonylamino)-1-methyl-2-oxo-ethoxycarbonyl]-ethoxycarbonyl}-ethoxycarbonyl)-ethyl ester], the solubility reads like this: under setting [3], greater than 50 mg/mL; under setting [1], greater than 50 mg/mL; under setting [2], less than 0.1 mg/mL.
For the compound `CCCCCCCCCCCCCCCCCC(=O)O[C@@H](C)C(=O)O[C@@H](C)C(=O)O[C@@H](C)C(=O)O[C@@H](C)C(=O)NS(=O)(=O)c1cc2c(s1)S(=O)(=O)N(CCCOC)CC2NCC` (stereo partly drawn) [Compound 15-2, Octadecanoic acid (S)-1-[(S)-1-((S)-1-{(S)-2-[4-ethylamino-2-(3-methoxy-propyl)-1,1-dioxo-1,2,3,4-tetrahydro-1λ*6*-thieno[3,2-e][1,2]thiazine-6-sulfonylamino]-1-methyl-2-oxo-ethoxycarbonyl}-ethoxycarbonyl)-ethoxycarbonyl]-ethyl ester], the solubility was greater than 50 mg/mL under setting [1] and less than 1 mg/mL under setting [2].
For `CC(=O)O[C@@H](C)C(=O)O[C@@H](C)C(=O)N1CCN=C1Nc1ccc2nccnc2c1Br` [Compound 25-2, (S)-2-Acetoxy-propionic acid (S)-2-[2-(5-bromo-quinoxalin-6-ylamino)-4,5-dihydro-imidazol-1-yl]-1-methyl-2-oxo-ethyl ester], in that order: greater than 50 mg/mL and less than 1 mg/mL.
For `CC(=O)O[C@@H](C)C(=O)O[C@@H](C)C(=O)O[C@@H](C)C(=O)N1CCN=C1Nc1ccc2nccnc2c1Br` [Compound 26-2, (S)-2-((S)-2-Acetoxy-propionyloxy)-propionic acid (S)-2-[2-(5-bromo-quinoxalin-6-ylamino)-4,5-dihydro-imidazol-1-yl]-1-methyl-2-oxo-ethyl ester], the solubility reads like this: under setting [1], greater than 50 mg/mL; under setting [2], less than 1 mg/mL.
On the same counts, the results for `CC(=O)O[C@@H](C)C(=O)O[C@@H](C)C(=O)O[C@@H](C)C(=O)O[C@@H](C)C(=O)N1CCN=C1Nc1ccc2nccnc2c1Br` [Compound 27-2, (S)-2-[(S)-2-((S)-2-Acetoxy-propionyloxy)-propionyloxy]-propionic acid (S)-2-[2-(5-bromo-quinoxalin-6-ylamino)-4,5-dihydro-imidazol-1-yl]-1-methyl-2-oxo-ethyl ester] are greater than 50 mg/mL and less than 1 mg/mL.
On the same counts, the results for `CCCCCCCCCCCCCCCCCC(=O)O[C@@H](C)C(=O)O[C@@H](C)C(=O)O[C@@H](C)C(=O)O[C@@H](C)C(=O)N1CCN=C1Nc1ccc2nccnc2c1Br` [Compound 29-2, Octadecanoic acid (S)-1-[(S)-1-((S)-1-{(S)-2-[2-(5-bromo-quinoxalin-6-ylamino)-4,5-dihydro-imidazol-1-yl]-1-methyl-2-oxo-ethoxycarbonyl}-ethoxycarbonyl)-ethoxycarbonyl]-ethyl ester] are greater than 50 mg/mL and less than 1 mg/mL.
Take `CC(=O)O[C@@H](CNC(C)(C)C)COc1nsnc1N1CCOCC1.O=C(O)/C=C\C(=O)O` [Compound 35-4, Acetic acid (S)-1-(tert-butylamino-methyl)-2-(4-morpholin-4-yl-[1,2,5]thiadiazol-3-yloxy)-ethyl ester maleate]: the solubility by setting is: under setting [1], greater than 50 mg/mL; under setting [2], less than 1 mg/mL.
On the same counts, the results for `CC(C)(C)NC[C@@H](COc1nsnc1N1CCOCC1)OC(=O)OC(C)(C)C` [Compound 36-2, Carbonic acid tert-butyl ester (S)-1-(tert-butylamino-methyl)-2-(4-morpholin-4-yl-[1,2,5]thiadiazol-3-yloxy)-ethyl ester] are greater than 50 mg/mL and less than 1 mg/mL.
Consider `CC(=O)N(C[C@@H](COc1nsnc1N1CCOCC1)OC(=O)OC(C)(C)C)C(C)(C)C` [Compound 37-2, Timolol-O-Boc-N-acetate], for which the solubility by setting is: under setting [1], greater than 50 mg/mL; under setting [2], less than 1 mg/mL.
For `CCCCCCCCCCCCCCCCCC(=O)O[C@@H](C)C(=O)O[C@@H](C)C(=O)O[C@@H](C)C(=O)O[C@@H](C)C(=O)O[C@@H](C)C(=O)O[C@@H](C)C(=O)O[C@@H](CNC(C)(C)C)COc1nsnc1N1CCOCC1` [Compound 42-2, Octadecanoic acid (S)-1-((S)-1-{(S)-1-[(S)-1-((S)-1-{(S)-1-[(S)-1-(tert-butylamino-methyl)-2-(4-morpholin-4-yl-[1,2,5]thiadiazol-3-yloxy)-ethoxycarbonyl]-ethoxycarbonyl}-ethoxycarbonyl)-ethoxycarbonyl]-ethoxycarbonyl}-ethoxycarbonyl)-ethyl ester maleate], in that order: greater than 50 mg/mL and less than 1 mg/mL.
For `CCCCCCCCCCCCCCCCCC(=O)O[C@@H](C)C(=O)O[C@@H](C)C(=O)O[C@@H](C)C(=O)O[C@@H](C)C(=O)O[C@@H](C)C(=O)O[C@@H](C)C(=O)O[C@@H](CNC(C)(C)C)COc1nsnc1N1CCOCC1.Cl` [Compound 43-1, Octadecanoic acid (5)-1-((S)-1-{(S)-1-[(S)-1-((S)-1-{(S)-1-[(S)-1-(tert-butylamino-methyl)-2-(4-morpholin-4-yl-[1,2,5]thiadiazol-3-yloxy)-ethoxycarbonyl]-ethoxycarbonyl}-ethoxycarbonyl)-ethoxycarbonyl]-ethoxycarbonyl}-ethoxycarbonyl)-ethyl ester hydrochloride], the “Solubility DMSO” value (Table 3A, DMSO) was greater than 50 mg/mL. In addition, the “Solubility Water” value (Table 3A, water, drug added to 50 mg/mL) is reported as 6.25 mg/mL. In addition, the aqueous solubility (aqueous solution) was found to be 6.25 mg/mL.
For the compound `CC(=O)O[C@H](C)C(=O)O[C@@H](CNC(C)(C)C)COc1nsnc1N1CCOCC1.O=C(O)/C=C\C(=O)O` [Compound 44-2, Timolol-acetyl PLA (n=1) maleate], the solubility is greater than 50 mg/mL under setting [1] and less than 1 mg/mL under setting [2].
As to `CC/C=C\C/C=C\C/C=C\C/C=C\C/C=C\C/C=C\CCC(=O)O[C@@H](CNC(C)(C)C)COc1nsnc1N1CCOCC1.O=C(O)/C=C\C(=O)O` [Compound 53-3, (4Z,7Z,10Z,13Z,16Z,19Z)-Docosa-4,7,10,13,16,19-hexaenoic acid (S)-1-(tert-butylamino-methyl)-2-(4-morpholin-4-yl-[1,2,5]thiadiazol-3-yloxy)-ethylester maleate], the solubility under setting [4] is greater than 100 mg/mL and the solubility under setting [5] is less than 1 mg/mL.
Regarding `CCCCCCCCCCCCCCCCCC(=O)O[C@@H](C)C(=O)O[C@@H](C)C(=O)O[C@H](COc1nsnc1N1CCOCC1)CN(C(C)=O)C(C)(C)C` [Compound 66-1, N-Acyl-Timolol-PLA (n = 2) Stearate], the solubility was greater than 100 mg/mL under setting [4] and less than 1 mg/mL under setting [5].
Turning to `CCCCCCCCCCCCCCCCCC(=O)O[C@@H](C)C(=O)O[C@@H](C)C(=O)O[C@@H](C)C(=O)O[C@@H](C)C(=O)O[C@H](COc1nsnc1N1CCOCC1)CN(C(C)=O)C(C)(C)C` [Compound 67-1, N-Acyl-Timolol-PLA (n = 4) Stearate], the solubility is 70 mg/mL (≈ 76.7 mM) under setting [4] and less than 1 mg/mL under setting [5].
For `CC/C=C\C/C=C\C/C=C\C/C=C\C/C=C\C/C=C\CCC(=O)O[C@H](COc1nsnc1N1CCOCC1)CN(C(C)=O)C(C)(C)C` [Compound 68-1, N-Acyl-Timolol-DHA], in that order: greater than 100 mg/mL and less than 1 mg/mL.
On the same counts, the results for `CC(=O)N(C[C@@H](COc1nsnc1N1CCOCC1)OC(=O)[C@H](C)OC(=O)[C@H](C)O)C(C)(C)C` [Compound 69-1] are greater than 100 mg/mL and less than 6.3 mg/mL.
On the same counts, the results for `CCCCC/C=C\C/C=C\CCCCCCCC(=O)O[C@@H](CNC(C)(C)C)COc1nsnc1N1CCOCC1.Cl` [Compound 71-1, Timolol-O-Linoleic Acid-HCl] are greater than 50 mg/mL and greater than 25 mg/mL.
Regarding `CC(C)(C)NC[C@@H](COc1nsnc1N1CCOCC1)OC(=O)CCCCCCCCC(=O)O[C@@H](CNC(C)(C)C)COc1nsnc1N1CCOCC1.O=C(O)/C=C\C(=O)O` [Compound 75-1, Timolol-Sebacic Acid-Timolol Maleate], the solubility is, setting by setting: under setting [4], greater than 100 mg/mL; under setting [5], less than 1 mg/mL.
On the same counts, the results for `CC(C)(C)NC[C@@H](COc1nsnc1N1CCOCC1)OC(=O)CCC(=O)O[C@@H](CNC(C)(C)C)COc1nsnc1N1CCOCC1.O=C(O)/C=C\C(=O)O` [Compound 76-4, Timolol-succinic acid-Timolol-maleate] are greater than 100 mg/mL and greater than 6.25 mg/mL.
On the same counts, the results for `CC(C)(C)NC[C@@H](COc1nsnc1N1CCOCC1)OC(=O)CCCC(=O)O[C@@H](CNC(C)(C)C)COc1nsnc1N1CCOCC1.O=C(O)/C=C\C(=O)O` [Compound 77-1, Timolol-glutaric acid-Timolol-maleate] are greater than 100 mg/mL and less than 1 mg/mL.
For `CC(C)(C)NC[C@@H](COc1nsnc1N1CCOCC1)OC(=O)/C=C/C(=O)O[C@@H](CNC(C)(C)C)COc1nsnc1N1CCOCC1.O=C(O)/C=C\C(=O)O.O=C(O)/C=C\C(=O)O` [Compound 78-1, Timolol-fumurate-Timolol-maleate], in that order: greater than 100 mg/mL and less than 1 mg/mL.
